Laboratory results: patent US20240108011A1, “HERBICIDAL COMBINATIONS AND COMPOSITIONS AND METHODS FOR TREATING WEEDS USING THE SAME” (UPL Corporation Limited, priority 2021, published 2024)

Key:
Format in all cases: in vivo
[1] = tested on: Borreria verticilata; test: Greenhouse trial, weed control efficacy on Borreria verticilata; settings: 7 DAA
Protocol: In this example, synergy from the combination of L-glufosinate ammonium (150 gai/ha) and 2,4-D choline (137 gai/ha) on Borrelia verticilata was determined using the calculated percentage efficacy after 7 days of application (DAA). The results are recorded in Table 1 below:
In this example, synergy of the combination of L-glufosinate ammonium (150 gai/ha) and 2,4-D choline (228 gai/ha) on Borrelia verticilata was determined using the calculated percentage efficacy after 7 days of application (DAA).

[2] = tested on: Eleusine indica; test: Greenhouse trial, weed control efficacy on Eleusine indica; settings: Table 3
Protocol: In this example, synergy of the combination of L-glufosinate ammonium (150 gai/ha) and 2,4-D choline (228 gai/ha) on Eleusine indica was determined using the calculated percentage efficacy after 7, 14, 21 and 28 days of application (DAA).

[3] = tested on: Euphorbia heterophylla; test: Greenhouse trial, weed control efficacy on Euphorbia heterophylla
Protocol: In this example, synergy of the combination of L-glufosinate ammonium (150 gai/ha) and 2,4-D choline (137 gai/ha) Euphorbia heterophylla was determined using the calculated percentage efficacy after 7, 14, 21 days of application (DAA). The results are recorded in the Table 4 below:
In this example, synergy of using the combination of L-glufosinate ammonium (150 gai/ha) and 2,4-D choline (228 gai/ha) on Euphorbia heterophylla was determined using the calculated percentage efficacy after 14, 21 days of application (DAA).

Structure (SMILES): C[N+](C)(C)CCO.O=C([O-])COc1ccc(Cl)cc1Cl [2,4-D choline]
- Observed efficacy (%) of 2,4-D choline (137 gai/ha) ([1]; Table 1, 137 gai/ha): 30%
- Observed efficacy (%) of 2,4-D choline (228 gai/ha) ([1]; Table 2, 228 gai/ha): 30%
- Observed efficacy (%) of 2,4-D choline (228 gai/ha) ([2]; 7 DAA): 10%
- Observed efficacy (%) of 2,4-D choline (228 gai/ha) ([2]; 14 DAA): 10%
- Observed efficacy (%) of 2,4-D choline (228 gai/ha) ([2]; 21 DAA): 10%
- Observed efficacy (%) of 2,4-D choline (228 gai/ha) ([2]; 28 DAA): 5%
- Observed efficacy (%) of 2,4-D choline (137 gai/ha) ([3]; Table 4, 7 DAA): 35%
- Observed efficacy (%) of 2,4-D choline (137 gai/ha) ([3]; Table 4, 14 DAA): 30%
- Observed efficacy (%) of 2,4-D choline (137 gai/ha) ([3]; Table 4, 21 DAA): 25%
- Observed efficacy (%) of 2,4-D choline (228 gai/ha) ([3]; Table 5, 14 DAA): 30%
- Observed efficacy (%) of 2,4-D choline (228 gai/ha) ([3]; Table 5, 21 DAA): 30%

Structure (SMILES): CP(=O)(O)CC[C@H](N)C(=O)O.N [L-glufosinate ammonium, ammonium (2S)-2-amino-4-(methylphosphinato)butyric acid]
- Observed efficacy (%) of L-glufosinate ammonium (150 gai/ha) ([1]; Table 1): 65%
- Observed efficacy (%) of L-glufosinate ammonium (150 gai/ha) ([1]; Table 2): 65%
- Observed efficacy (%) of L-glufosinate ammonium (150 gai/ha) ([2]; 7 DAA): 70%
- Observed efficacy (%) of L-glufosinate ammonium (150 gai/ha) ([2]; 14 DAA): 65%
- Observed efficacy (%) of L-glufosinate ammonium (150 gai/ha) ([2]; 21 DAA): 60%
- Observed efficacy (%) of L-glufosinate ammonium (150 gai/ha) ([2]; 28 DAA): 50%
- Observed efficacy (%) of L-glufosinate ammonium (150 gai/ha) ([3]; Table 4, 7 DAA): 95%
- Observed efficacy (%) of L-glufosinate ammonium (150 gai/ha) ([3]; Table 4, 14 DAA): 98%
- Observed efficacy (%) of L-glufosinate ammonium (150 gai/ha) ([3]; Table 4, 21 DAA): 98%
- Observed efficacy (%) of L-glufosinate ammonium (150 gai/ha) ([3]; Table 5, 14 DAA): 98%
- Observed efficacy (%) of L-glufosinate ammonium (150 gai/ha) ([3]; Table 5, 21 DAA): 98%
